From US8884097B1, “Method to condition an invertebrate to detect a concentration range of a chemical compound” (The United States of America as represented by the …, priority 2011, dated 2014)
“Also recorded” adds a separate entry of the source.

Legend:
[1] = tested on: Microplitis croceipes; experiment: Conditioned food-searching response of wasps to individual odor concentrations; assay type: in vivo
Protocol: Female wasps were conditioned to a 30 μl solution of indole (Spectrum Chemical MFG CORP., Gardena, Calif.) dissolved in dichloromethane at either 100 μg/ml or 1 μg/ml. The solvent was allowed to evaporate for one min before the assay. The conditioning arena consisted of a 9 cm d, 1.5 cm h metal ring covered with aluminum foil that was placed inside a glass petri dish (10 cm d and 1 cm h) containing the compound-laden filter paper (2.5 cm d). A small (4 mm^2) piece of filter paper laden with the sugar water (1 molar sucrose solution) was placed at the center of the metal ring covered with aluminum foil. A total of 9 holes (ca 1 mm d) were punctured around the tissue paper so that diffusing volatiles could be perceived as they fed on the sugar water. Wasps were allowed to feed for 10 s three times with 30 s between feedings. All conditioning and testing was done under a chemical fume hood. The conditioning arena was replaced with fresh materials after every 5 females (ca 10-15 min). Females were placed in a Plexiglas cage with water for 2 hrs before testing. A total of 20 females were conditioned per day over 2 days.
All test solutions were allowed to evaporate for 1 minute before being presented to the wasps. The test arena was the same as the conditioning arena except that only a single (ca 1 mm d) hole was punctured at the center of the aluminum foil covered metal ring. Wasps were placed close to the hole using a transfer vial. Measured were food-specific behaviors (Wäckers et al., 2002) which included intense substrate antennation with frequent tight turning, a distinct lowering of the head for food searching and attempts to enter the hole. Responses parameters included a recordation of both the number of turns and overall duration of the food searching. Each female was presented a single odor concentration. A total of 20 females (10 to high and 10 to low concentrations) were tested per day over 2 days. Kruskal-Wallis non-parametric ANOVA was used to test the effect of concentration on wasp responses (StatSoft, Inc. 2003).
The arena and procedure for testing were as described in Example 1. However, the wasps were conditioned via positive food conditioning of sugar-water to indole at 1 μg/ml. Additionally, the same wasp was also negatively food conditioned to 100 μg/ml of indole with water. Each female was test with a single indole concentration at either 100 μg/ml of indole or at 1 μg/ml. A total of 20 females (10 to high and 10 to low concentrations) were tested per day over 2 days.
The arena and procedure for testing were as described in Example 1. However, the wasps were conditioned via positive food conditioning of sugar-water to 30 μl of conditioning solution of skatole dissolved in dichloromethane at either 0.001 μg/ml, 0.01 μg/ml, 0.1 μg/ml, 1 μg/ml, 10 μg/ml, or 100 μg/ml. A 1 molar sucrose solution was used as the unconditioned stimulus (reward).

[2] = tested on: Microplitis croceipes; experiment: as above; assay type: in vivo; conditions: positively conditioned to 100 μg/ml and 1000 μg/ml, tested at 1000 μg/ml
[3] = conditioned to 0.1 μg/ml, tested at 0.1 μg/ml
[4] = conditioned to 0.1 μg/ml, tested at 1 μg/ml
[5] = conditioned to 1 μg/ml, tested at 0.1 μg/ml
[6] = conditioned to 1 μg/ml, tested at 1 μg/ml
[7] = conditioned to 1 μg/ml, tested at 10 μg/ml
[8] = conditioned to 10 μg/ml, tested at 1 μg/ml
[9] = conditioned to 10 μg/ml, tested at 10 μg/ml
[10] = conditioned to 100 μg/ml, tested at 100 μg/ml

| Compound | response of conditioned wasps (food searching time and turns) [1, 3] | response of conditioned wasps (food searching time and turns) [1, 4] | response of conditioned wasps (food searching time and turns) [1, 5] | response of conditioned wasps (food searching time and turns) [1, 6] | response of conditioned wasps (food searching time and turns) [1, 7] | response of conditioned wasps (food searching time and turns) [1, 8] | response of conditioned wasps (food searching time and turns) [1, 9] | conditioned response to the individual volatile ([1]; single odor experiment) | response of conditioned wasps (food searching time and turns) [1, 10] | further results |
| --- | --- | --- | --- | --- | --- | --- | --- | --- | --- | --- |
| C[C@]12CCC(=O)C[C@@H]1CC[C@@H]1[C@@H]2CC[C@]2(C)C=CC[C@@H]12 [androstenone, 5α-androst-16-en-3-one] | only responded to the conditioning concentration | only responded to the conditioning concentration | only responded to the conditioning concentration | only responded to the conditioning concentration | only responded to the conditioning concentration | did not respond to either concentration | did not respond to either concentration | weak |  | response of conditioned wasps (food searching time and turns) ([1]; conditioned to 0.01 μg/ml, tested at 0.01 μg/ml): responded to the conditioning concentration; response of conditioned wasps (food searching time and turns) ([1]; conditioned to 0.1 μg/ml, tested at 0.01 μg/ml): only responded to the conditioning concentration |
| c1ccc2[nH]ccc2c1 [indole] |  |  |  | responded to the conditioned concentration |  |  |  | respond reliably | responded to the conditioned concentration | response of conditioned wasps (food searching time and turns) ([1]; conditioned to 1 μg/ml, tested at 100 μg/ml): responded; response of conditioned wasps (food searching time and turns) ([1]; conditioned to 100 μg/ml, tested at 1 μg/ml): did not respond; response of conditioned wasps (food searching time and turns) ([1]; positively conditioned to 1 μg/ml and negatively conditioned to 100 μg/ml, tested at 1 μg/ml): responded to the conditioned concentration; response of conditioned wasps (food searching time and turns) ([1]; positively conditioned to 1 μg/ml and negatively conditioned to 100 μg/ml, tested at 100 μg/ml): did not respond to the negatively conditioned concentration; duration of the conditioned response compared with skatole ([1]; single odor experiment): more prolonged response |
| C=CC(C)=CCC=C(C)C [ocimene, reference compound] |  |  |  |  |  |  |  |  |  | response of conditioned wasps to a non-conditioned odor ([1]; single odor experiment, non-conditioned floral odor): do not respond |
| Cc1c[nH]c2ccccc12 [skatole, 3-methyl-indole] | no responses | no responses | responded to both concentrations; also recorded: able to detect it | responded to both concentrations | only responded to the conditioning concentration | responded to both skatole concentrations | responded to both skatole concentrations | respond reliably | responded to both skatole concentrations | response of conditioned wasps (food searching time and turns) ([1]; conditioned to 10 μg/ml, tested at 100 μg/ml): only responded to the conditioning concentration; response of conditioned wasps (food searching time and turns) ([1]; conditioned to 100 μg/ml, tested at 10 μg/ml): responded to both skatole concentrations; response of conditioned wasps (food searching time and turns) ([1]; conditioned to 100 μg/ml, tested at 1 mg/ml): only responded to the conditioning concentration; response of conditioned wasps (food searching time and turns) ([1]; positively conditioned to 100 μg/ml and 1000 μg/ml, tested at 10 μg/ml): responded; response of conditioned wasps (food searching time and turns) ([1]; positively conditioned to 100 μg/ml and 1000 μg/ml, tested at 100 μg/ml): responded to both of the conditioning concentrations; response of conditioned wasps (food searching time and turns) [2]: responded to both of the conditioning concentrations |
